# Reference: PMC12587574, “Mass balance, pharmacokinetics, metabolism, and excretion of radiolabeled acoziborole, a potential novel treatment for human African trypanosomiasis, following single microtracer oral dose to humans” (Antimicrobial Agents and Chemotherapy, 2025)
# “And” between values parts separate entries of the source, which are not always exact repeats. Identical values can stand only once.
# How the values were obtained:
# [1] = Metabolite profiling and identification in pools of plasma, urine and feces (UPLC-MS, AMS); assay type: in vivo, human
# Description: Individual pools of plasma (0–336 h, including time points at 1, 4, 9, 12, 24, 48, 72, 96, 120, 168, 240, and 336 h), urine (0–240 h, including time intervals 0–6, 6–12, 12–24, 24–48, 48–72, 72–96, 96–120, 120–168, 168–192, 192–216, and 216–240 h) and feces homogenates (0–240 h, including time intervals 0–6, 6–12, 12–24, 24–48, 48–72, 72–96, 96–120, 120–168, and 168–240 h) were prepared; for plasma this was done according to the method described in reference and for feces by using equal percentages per time point based on total volume. Subsequently, a pool per matrix was prepared by mixing equal volumes of each participant pool. In addition, a plasma pre-dose pool was prepared by mixing equal volumes of each pre-dose sample. For urine and feces, TNO blank pool was used to generate a pre-dose sample. Samples were stored below −18°C. Samples (100 µL plasma, 250 µL urine, and 200 mg feces) were pre-treated and injected onto an ultra-high performance liquid chromatography (UPLC)-MS system (Acquity UPLC system [Waters] coupled to a Q-Exactive [Thermo]; Acquity HSS C18 VanGuard 5 mm × 2.1 mm, 1.8 µm [Waters] pre-column and Acquity HSS C18 100 mm × 2.1 mm, 1.8 µm d.p. [Waters]). Fractions were collected and analyzed off-line by AMS. AMS analysis was performed on an AMS system, consisting of an elemental analyzer, a double gas interface, and a 1 MV multi-element AMS. All fecal homogenate sample analyzes were performed in triplicate. Plasma pre-dose and TNO blank urine and feces pools were used for background correction. The UPLC method qualification included determination of retention time stability and extraction recovery. Metabolites were tentatively assigned to fractions in which activity greater than the baseline was observed, based on retention time and structural information provided by DNDi. Presence of the metabolite was confirmed by accurate mass data from high-resolution mass spectrometric analysis.
# [2] = Excretion and mass balance of total radioactivity in urine and feces (AMS); assay type: in vivo, human
# Description: Urine samples were collected before IP administration (single urine void) and then during intervals of 0–6, 6–12, 12–24, 24–48, 48–72, 72–96, 96–120, 120–168, 168–192, 192–216, and 216–240 h post-dose and for the additional 48-h collection period starting on Day 15 post-dose, that is, 336–384 h. Samples were acidified with citric acid to avoid acoziborole degradation and were refrigerated until the end of the block collection periods. The total weight and volume of urine were then recorded. At the end of each collection period, two aliquots of acidified urine (20 mL) were taken from the sample and stored in polypropylene tubes at −20°C until further analysis for total radioactivity. Two aliquots of 1 mL acidified urine were collected into tubes containing bovine serum albumin in aqueous solution (to avoid non-specific adsorption of acoziborole) and NaCl for acoziborole and SCYX-3109 assays. Urine samples for metabolite profiling were pooled for each participant according to the time intervals reported above, from 0 to 240 h.
# Feces were collected before dosing and at block intervals of 0–6, 6–12, 12–24, 24–48, 48–72, 72–96, 96–120, 120–168, and 168–240 h post-dose and for five additional 48-h home collection periods starting on Days 15, 29, 59, 89, and 119. At the end of each collection period, a portion of the sample (50 g) was retained and stored at approximately −20°C until analyzed. The remaining fecal homogenate was combined with that collected at the end of each time interval and stored at approximately −20°C.
# TNO (Leiden, the Netherlands) performed the analysis of total radioactivity and the metabolite profiling and identification. All blood, plasma, urine, and fecal homogenate samples were analyzed for total radioactivity by accelerator mass spectrometry (AMS). AMS analysis was performed on a 1 MV multi-element AMS, model 4110 Bo, high voltage engineering (software: AMS 155), using Australian National University (ANU) sucrose-8542 (C12H22O11) with a certified ^14C/^12C isotope ratio ([10]) as the system suitability test sample and [^14C]-paracetamol as an AMS quality check sample.
# For each (diluted) sample, 5 µL blood, 5 µL plasma, 15 µL urine, or 30 mg fecal homogenate prepared in 1% CMC solution (1% CMC solution:feces ratio of 4:1) were transferred to tin foil cups. The samples were dried under a stream of nitrogen and subsequently placed in the elemental analyzer (EA, Vario Micro, Elementar, Germany), which acts as an autosampler and combustion device for the AMS. Single samples of blood, plasma, and urine were analyzed. Fecal homogenates were analyzed in triplicate, and the averaged value was reported. Total radioactivity in plasma and blood was expressed as ng equivalents (Eq) of acoziborole/mL. The LLOQ was 47.3 ngEq/mL in plasma (1.51 mBq/mL), 165.4 ngEq/mL in blood (5.28 mBq/mL), 33.8 ngEq/mL in urine (1.08 mBq/mL), and 87.1 ngEq/mL in feces (2.78 mBq/mL).
# Blood-to-plasma ratio was calculated based on Cmax and AUC values. For total radioactivity excreted in urine, feces, and both combined, the following parameters were calculated: total amount of total radioactivity excreted over the time interval between t1 and t2 (Aet1−t2), Aet1−t2 expressed as a percentage of the radioactive dose administered (%Aet1−t2), CumAe, and Cum%Ae. For CumAe calculation, the recovery of total radioactivity during WinNonlin time intervals in which urine and feces were not collected was estimated using the area under the excretion rate-time curve from the end of the preceding collection interval to the start of the subsequent collection interval.
# [3] = 960 mg single oral dose, N = 6, mean and SD
# [4] = 960 mg single oral dose, N = 6, mean and SD, listed as [^14C]-acoziborole
# [5] = t set to 1440 h (60 days), N = 6, mean and SD
# [6] = t set to 1440 h (Day 60), N = 6, mean and SD, listed as [^14C]-acoziborole
compound,measurement,setting,value
CC1(C)OB(O)c2cc(NC(=O)c3ccc(F)cc3C(F)(F)F)ccc21 [acoziborole],"proportion of the dose excreted, urine and feces combined",[1]; 0–240 h pools,34.2%
same,"abundance relative to dose, feces",[1]; feces homogenates 0–240 h,33.6%
same,"relative abundance in radiochromatogram, feces homogenates pool",[1]; feces homogenates 0–240 h,66.0%
same,"relative abundance in radiochromatogram (share of total radioactivity), plasma pool","[1]; plasma pool 0–336 h, 960 mg single oral [14C]-acoziborole, listed as Parent (acoziborole)",95.1%
same,"abundance relative to dose, urine",[1]; urine pool 0–240 h,0.6% and < 1%
same,"relative abundance in radiochromatogram, urine pool",[1]; urine pool 0–240 h,7.6%
same,"abundance relative to dose, urine","[1]; urine pool 0–240 h, listed as Parent (acoziborole)",0.6%
same,"Cum%Ae0-240h dose, total radioactivity recovered (urine and faeces)",[2]; [3],58.6 ± 8.6%
same,"Cum%Ae0-384h dose, total radioactivity recovered (urine and faeces)",[2]; [3],70.8 ± 8.1%
same,"CumAe0-240h, total radioactivity in faeces",[2]; [3],488.8 ± 84.8 mgEq
same,"CumAe0-240h, total radioactivity in urine",[2]; [3],74.0 ± 18.5 mgEq
same,"CumAe0-240h, total radioactivity recovered (urine and faeces)",[2]; [3],562.9 ± 82.8 mgEq
same,"CumAe0-384h, total radioactivity in faeces",[2]; [3],574.9 ± 81.4 mgEq
same,"CumAe0-384h, total radioactivity in urine",[2]; [3],104.6 ± 28.9 mgEq
same,"CumAe0-384h, total radioactivity recovered (urine and faeces)",[2]; [3],679.6 ± 77.5 mgEq
same,"Cum%Ae0-240h dose, total radioactivity in faeces",[2]; [4],50.9 ± 8.8%
same,"Cum%Ae0-240h dose, total radioactivity in urine",[2]; [4],7.7 ± 1.9%
same,"Cum%Ae0-384h dose, total radioactivity in faeces",[2]; [4],59.9 ± 8.5%
same,"Cum%Ae0-384h dose, total radioactivity in urine",[2]; [4],10.9 ± 3.0%
same,increment in excretion of total radioactivity,"[2]; between Days 59 and 61 (up to 1,440 h)",< 1%
same,"absorbed fraction, estimated","[2]; fasting condition, assuming gastrointestinal transit time of approximately 3 days",≥ 70 % of the dose
same,geometric mean recovery of total radioactivity in urine and feces,"[2]; over the total 1,392 h, CV% 5.5%",87.2%
same,"CumAe0-t, total radioactivity in faeces",[2]; [5],712.1 ± 56.4 mgEq
same,"CumAe0-t, total radioactivity recovered (urine and faeces)",[2]; [5],838.4 ± 48.9 mgEq
same,"Cum%Ae0-t dose, total radioactivity in faeces",[2]; [6],74.2% and 74.2 ± 5.9%
same,"Cum%Ae0-t dose, total radioactivity recovered (urine and faeces)",[2]; [6],87.3% and 87.3 ± 5.1%
same,"CumAe0-t, total radioactivity in urine","[2]; urine collection limited to 384 h, N = 6, mean and SD",104.6 ± 28.9 mgEq
same,"Cum%Ae0-t dose, total radioactivity in urine","[2]; urine collection limited to 384 h, N = 6, mean and SD, listed as [^14C]-acoziborole",10.9% and 10.9 ± 3.0%
